Where two headings read alike, the source gives them in different places.
Experiments:
[1] = test system: pentagastrin-stimulated gastric acid secretion; assay: Inhibition of pentagastrin-stimulated gastric acid secretion in dog (Heidenhain pouch); format: in vivo, male beagle dogs; settings: maximum inhibition of stimulated acid output, oral, pentagastrin 8 µg/kg/hr infusion, mean for 3 - 5 animals
Procedure: Assays were performed using male beagle dogs (7 - 12 kg) two months after surgical preparation of Heidenhain pouches following the conventional procedure. Each dog was used only once per week.
The animals were deprived of food with free access to water for 18 hr prior to the experiment. The gastric juice was collected from the gastric canula by gravity drainage every 15 min, and acid output was determined by automatic titration with 0.05 N NaOH to pH 7.0 (Comtite-7, Hiranuma, Tokyo, Japan). Drugs were administered orally 3 hr after the start of the pentagastrin (8 µg/kg/hr) infusion. The effect of each drug was calculated as the percentage inhibition of stimulated acid output. […] Each result is a mean for 3 - 5 animals.

[2] = molecular target: T1, CCK-B receptors (Rattus norvegicus, UniProt P30553); assay: Measurement of binding affinity for CCK-B receptors ([125I]BH-CCK-8 displacement, brain membrane preparation); parameters: species or system SD rats; settings: for A/B Ratio: selectivity, ratio IC50 (CCK-A)/IC50 (CCK-B)
T1 construct: the whole brain was immediately excised from each of the rats and homogenized; from tissue; host or cells: SD rat whole-brain membrane preparation
T1 sequence (P30553 whole entry): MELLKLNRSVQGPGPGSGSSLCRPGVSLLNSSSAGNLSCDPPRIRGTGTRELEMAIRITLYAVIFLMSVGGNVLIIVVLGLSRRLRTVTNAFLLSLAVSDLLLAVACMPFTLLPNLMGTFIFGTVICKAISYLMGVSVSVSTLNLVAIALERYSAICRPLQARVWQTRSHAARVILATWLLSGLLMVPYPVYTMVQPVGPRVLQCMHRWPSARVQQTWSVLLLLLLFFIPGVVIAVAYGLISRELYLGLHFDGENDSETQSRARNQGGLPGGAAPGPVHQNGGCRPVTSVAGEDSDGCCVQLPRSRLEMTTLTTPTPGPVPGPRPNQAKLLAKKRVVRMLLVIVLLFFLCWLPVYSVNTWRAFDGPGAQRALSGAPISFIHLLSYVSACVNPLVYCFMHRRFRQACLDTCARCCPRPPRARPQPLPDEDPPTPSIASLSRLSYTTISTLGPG
Procedure: About 100 SD rats were decapitated without anaesthesia, the whole brain was immediately excised from each of the rats and homogenized in 10-fold volume of 0.32 M aqueous solution of sucrose by the use of a Teflon-coated homogenizer, the homogenate thus obtained was centrifuged for ten minutes at 900 g by the use of a cooled centrifuge, and the supernatant was further centrifuged for 15 minutes at 11500 g. The precipitate thus obtained was dispersed in 50 mM Tris-HCl buffer (pH 7.4) containing 0.08% Triton X-100, this suspension was allowed to stand for 30 minutes and again centrifuged for 15 minutes at 11500 g, the precipitate thus obtained was washed twice with 5 mM Tris-HCl buffer and twice with 50 mM Tris-HCl buffer in that order with centrifugal separation, the washed precipitate was suspended in 50 mM Tris-HCl buffer, and the suspension thus obtained was stored at -80°C until the membrane preparation was required.
The membrane preparations were warmed to room temperature, diluted with 10 mM HEPES buffer (containing 130 mM NaCl, 5 mM MgCl2, 1 mM EGTA and 0.25 mg/ml bacitracin; pH 6.5) and incubated at 25°C for 120 minutes in the presence of [^125I]BH-CCK-8 and the test compound, then separated by suction filtration. Non-specific binding was determined in the presence of 1 µM CCK-8. The amount of labelled ligand bound to the receptor was measured by the use of a γ-counter; IC50 values were determined, being that concentration of test compound required to inhibit specific binding by 50%.

[3] = molecular target: T2, CCK-A receptors (Rattus norvegicus, UniProt P30551); assay: Measurement of binding affinity for CCK-A receptors ([3H]L-364,718 displacement, pancreas membrane preparation); parameters: species or system SD rat
T2 construct: The pancreas of an SD rat was homogenized; from tissue; host or cells: SD rat pancreas membrane preparation
T2 sequence (P30551 1-444): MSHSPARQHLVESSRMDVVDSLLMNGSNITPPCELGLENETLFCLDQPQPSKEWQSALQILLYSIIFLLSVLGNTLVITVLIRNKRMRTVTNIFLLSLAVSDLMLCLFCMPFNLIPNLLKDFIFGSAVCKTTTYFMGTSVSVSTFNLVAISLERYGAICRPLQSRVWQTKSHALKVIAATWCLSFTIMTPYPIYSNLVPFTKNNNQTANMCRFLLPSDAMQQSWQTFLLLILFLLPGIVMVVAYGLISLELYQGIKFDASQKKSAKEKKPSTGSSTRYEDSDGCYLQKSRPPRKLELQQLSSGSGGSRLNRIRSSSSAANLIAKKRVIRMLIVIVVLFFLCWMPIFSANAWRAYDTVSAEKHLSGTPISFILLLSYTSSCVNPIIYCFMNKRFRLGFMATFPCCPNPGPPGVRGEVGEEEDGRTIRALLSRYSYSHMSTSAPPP
Procedure: The pancreas of an SD rat was homogenized in a 20-fold volume of 50 mM Tris-HCl buffer (pH 7.7) by the use of a Polytrone-type homogenizer, the homogenate was twice centrifuged for 10 minutes at 50000 g by the use of an ultra-centrifuge, the precipitate thus obtained was suspended in a 40-fold volume of 50 mM Tris-HCl buffer (containing 0.2% BSA, 5 mM MgCl2, 0.1 mg/ml bacitracin and 5 mM DTT; pH 7.7), and the suspension was stored at -80°C until the membrane preparations were required.
The membrane preparations were then warmed to room temperature, diluted 1:10 with the buffer and incubated at 37°C for 30 minutes in the presence of [^3H]L-364,718 and the test compound then separated by suction filtration. Non-specific binding was determined in the presence of 1 µM L-364,718. The amount of labelled ligand bound to the receptor was measured by the use of a liquid scintillation counter; IC50 values were determined, being that concentration of test compound required to inhibit specific binding by 50%

[4] = rat whole brain membranes, [125I]BH-CCK-8, 25°C, 120 minutes, read-out: Receptor binding affinity IC50(nM) CCK-B
[5] = rat pancreas membranes, [3H]L-364,718, 37°C, 30 minutes, read-out: Receptor binding affinity IC50(nM) CCK-A

Cc1cccc(NC(=O)NC2N=C(c3ccccn3)c3ccccc3N(CC(=O)C(C)(C)C)C2=O)c1 (racemic) [Example 27, N-((3RS)-1-tert-Butylcarbonylmethyl-2,3-dihydro-2-oxo-5-(2-pyridyl)-1H-1,4-benzodiazepin-3-yl)-N'-(3-methylphenyl) urea]
Inhibidon (dose) ([1]; 3 µmol/kg): 66% (3 µmol/kg)

CCC(C)(C)C(=O)CN1C(=O)C(NC(=O)Nc2cccc(C)c2)N=C(c2ccccc2)c2ccccc21 (racemic) [Example 36, N-((3RS)-1-tert-Amylcarbonylmethyl-2,3-dihydro-2-oxo-5-phenyl-1H-1,4-benzodiazepin-3-yl)-N'-(3-methylphenyl) urea]
IC50 [2]: 0.57 nM | A/B Ratio [2]: 1,300 | IC50 [3]: 720 nM

CCC(C)(C)C(=O)CN1C(=O)C(NC(=O)Nc2cccc(C(=O)O)c2)N=C(c2ccccc2)c2ccccc21 (racemic) [Example 37, N-((3RS)-1-tert-Amylcarbonylmethyl-2,3-dihydro-2-oxo-5-phenyl-1H-1,4-benzodiazepin-3-yl)-N'-(3-carboxyphenyl) urea]
IC50 [2]: 1.1 nM | A/B Ratio [2]: 5,100 | IC50 [3]: 5600 nM

CN(C)c1cccc(NC(=O)NC2N=C(c3ccccn3)c3ccccc3N(CC(=O)C(C)(C)C)C2=O)c1 (racemic) [Example 38, N-((3RS)-1-tert-Butylcarbonylmethyl-2,3-dihydro-2-oxo-5-(2-pyridyl)-1H-1,4-benzodiazepin-3-yl)-N'-(3-dimethylaminophenyl) urea]
Inhibidon (dose) ([1]; 3 µmol/kg): 100% (3 µmol/kg)

CC(C)(C)C(=O)CN1C(=O)C(NC(=O)Nc2cccc(C(=O)O)c2)N=C(c2ccccn2)c2ccccc21 (racemic) [Example 39, N-((3RS)-1-tert-Butylcarbonylmethyl-2,3-dihydro-2-oxo-5-(2-pyridyl)-1H-1,4-benzodiazepin-3-yl)-N'-(3-carboxyphenyl) urea]
IC50 [2]: 0.1 nM | A/B Ratio [2]: 2,400 | IC50 [3]: 240 nM

CN(C)c1cccc(NC(=O)NC2N=C(c3ccccc3)c3ccccc3N(CC(=O)C(C)(C)C)C2=O)c1 (racemic) [Example 41, N-((3RS)-1-tert-Butylcarbonylmethyl-2,3-dihydro-2-oxo-5-phenyl-1H-1,4-benzodiazepin-3-yl)-N'-(3-dimethylaminophenyl) urea]
IC50 [2]: 6.2 nM | A/B Ratio [2]: 1,100 | IC50 [3]: 6700 nM

CC(C)(C)C(=O)CN1C(=O)C(NC(=O)Nc2cccc([N+](=O)[O-])c2)N=C(c2ccccc2)c2ccccc21 (racemic) [Example 45, N-((3RS)-1-tert-Butylcarbonylmethyl-2,3-dihydro-2-oxo-5-phenyl-1H-1,4-benzodiazepin-3-yl)-N'-(3-nitrophenyl) urea]
A/B Ratio [2]: 3,700 | IC50 [3]: 590 nM

Cc1cccc(NC(=O)N[C@@H]2N=C(c3ccccc3)c3ccccc3N(CC(=O)C(C)(C)C)C2=O)c1 [Example 26, N-((3R)-1-tert-Butylcarbonylmethyl-2,3-dihydro-2-oxo-5-phenyl-1H-1,4-benzodiazepin-3-yl)-N'-(3-methylphenyl) urea]
Inhibidon (dose) ([1]; 3 µmol/kg): 53% (3 µmol/kg)

CNc1cccc(NC(=O)N[C@@H]2N=C(c3ccccc3)c3ccccc3N(CC(=O)C(C)(C)C)C2=O)c1 [Example 56, N-((3R)-1-tert-Butylcarbonylmethyl-2,3-dihydro-2-oxo-5-phenyl-1H-1,4-benzodiazepin-3-yl)-N'-(3-methylaminophenyl) urea]
IC50 [2, 4]: 0.11 nM | A/B Ratio [2]: 1,100 | IC50 [3, 5]: 120 nM

CN(C)c1cccc(NC(=O)N[C@@H]2N=C(c3ccccc3)c3ccccc3N(CC(=O)C(C)(C)C)C2=O)c1 [Example 64, N-((3R)-1-tert-Butylcarbonylmethyl-2,3-dihydro-2-oxo-5-phenyl-1H-1,4-benzodiazepin-3-yl)-N'-(3-dimethylaminophenyl) urea]
Inhibidon (dose) ([1]; 3 µmol/kg): 100% (3 µmol/kg)

CC(C)(C)C(=O)CN1C(=O)[C@H](NC(=O)Nc2cccc(N)c2)N=C(c2ccccc2)c2ccccc21 [Example 66, N-((3R)-1-tert-Butylcarbonylmethyl-2,3-dihydro-2-oxo-5-phenyl-1H-1,4-benzodiazepin-3-yl)-N'-(3-aminophenyl) urea]
IC50 [2, 4]: 0.5 nM | A/B Ratio [2]: 1,900 | IC50 [3, 5]: 950 nM

Cc1cccc(NC(=O)N[C@@H]2N=C(c3ccccc3)c3ccccc3N(C)C2=O)c1 [reference compound]
Inhibidon (dose) ([1]; 100 µmol/kg): 0% (100 µmol/kg) | IC50 [2, 4]: 29 nM | A/B Ratio [2]: 410 | IC50 [3, 5]: 12000 nM

From patent EP1342719B1, “Benzodiazepine derivatives useful as CCK-Receptor Antagonists” (Ferring BV, priority 1992, dated 1993)
